Experimental data: the NIST ThermoML archive (doi:10.1016/j.jct.2006.03.015)

Assay: mn = molality of the nth substance listed, in mol/kg
Details: 101 kPa, Liquid; for apparent molar heat capacity: Flow calorimetry

CC(=O)N[C@@H](CC(N)=O)C(N)=O [(S)-2-acetamidosuccinamide] + O
Details | apparent molar heat capacity [J/K/mol] | mass density [kg/m3]
288.15 K, m1 = 0.0291 | 307.3 | 1000.53
288.15 K, m1 = 0.03172 | 310 | 1000.65
288.15 K, m1 = 0.0368 | 307.6 | 1000.9
288.15 K, m1 = 0.03929 | 308.2 | 1001.03
288.15 K, m1 = 0.04222 | 309.5 | 1001.17
288.15 K, m1 = 0.04651 | 305.7 | 1001.38
288.15 K, m1 = 0.05278 | 306.6 | 1001.68
288.15 K, m1 = 0.05772 | 302.8 | 1001.92
288.15 K, m1 = 0.06036 | 303.7 | 1002.04
288.15 K, m1 = 0.06513 | 306.5 | 1002.28
288.15 K, m1 = 0.07059 | 308 | 1002.54
298.15 K, m1 = 0.02807 | 333.1 | 998.384
298.15 K, m1 = 0.03296 | 329.6 | 998.617
298.15 K, m1 = 0.0381 | 333.3 | 998.865
298.15 K, m1 = 0.04348 | 330.6 | 999.124
298.15 K, m1 = 0.04618 | 330.2 | 999.246
298.15 K, m1 = 0.05136 | 330.7 | 999.495
298.15 K, m1 = 0.05666 | 333.4 | 999.741
298.15 K, m1 = 0.06197 | 330.9 | –
298.15 K, m1 = 0.06198 | 333 | 999.991
298.15 K, m1 = 0.06667 | 332.5 | 1000.22
298.15 K, m1 = 0.07247 | 331 | 1000.49
313.15 K, m1 = 0.03215 | 353.5 | 993.709
313.15 K, m1 = 0.03777 | 356 | 993.972
313.15 K, m1 = 0.04273 | 355.6 | 994.186
313.15 K, m1 = 0.04501 | 361.1 | 994.291
313.15 K, m1 = 0.0481 | 358.6 | 994.444
313.15 K, m1 = 0.05166 | 353.7 | 994.598
313.15 K, m1 = 0.05423 | 357.7 | 994.726
313.15 K, m1 = 0.06055 | 358.6 | 995.006
313.15 K, m1 = 0.06612 | 356.4 | 995.264
313.15 K, m1 = 0.07077 | 355.6 | 995.471
313.15 K, m1 = 0.07187 | 357.7 | 995.524
328.15 K, m1 = 0.03205 | 378.3 | 987.15
328.15 K, m1 = 0.03805 | 377.4 | 987.418
328.15 K, m1 = 0.0428 | 373.4 | 987.633
328.15 K, m1 = 0.04683 | 379.4 | 987.812
328.15 K, m1 = 0.05183 | 377.2 | 988.042
328.15 K, m1 = 0.05694 | 380.7 | 988.263
328.15 K, m1 = 0.06115 | 377.1 | 988.455
328.15 K, m1 = 0.06488 | 376.5 | 988.623
328.15 K, m1 = 0.06958 | 380.2 | 988.834
